Data from patent publication US20240197711A1, “Combination Therapy for Cancer Treatment” (THE REGENTS OF THE UNIVERSITY OF MICHIGAN, priority 2021, published 2024).
Entries after “also recorded” stand apart in the source; their conditions may differ.

Tests used:
SGLT1 = experiment: Loss of EGFR-chaperoned transporter SGLT1 from cells; format: cell-based; details: along with EGFR
From the text: (§1) It was reasoned that the activity seen in these susceptible tumor lines was largely due to EGFR KIFs. Tumors cells are always metabolically stressed, and in actual tumors poor circulation makes the stress even more severe on the tumor interior, which is usually hypoxic once the tumor has growth to more than 100 mm^3. […] As tumor cells try to run in […] glycolysis, they have a much larger glucose requirement than normal cells, and any hindrance of glucose import would be expected to stress cells, pushing them away from aerobic glycolysis, and towards oxidative phosphorylation to produce ATP, which in turn would almost certainly increase production of reactive oxygen intermediates (ROI) in these already abnormally metabolizing cells. The most common ways of disposing of ROI are via conjugation with glutathione, or reaction with various reducing enzymes, most of which rely on cysteine thiols for their RedOx ability. Both of these mechanisms require stressed cells to be able to import large amounts of cysteine, much of which is produced by the liver and put into circulation, as the high demand totally overwhelms endogenous cysteine biosynthesis (which requires methionine as its source of sulfur). […]

[1] = system: osimertinib-resistant PC9 non-small cell lung cancer xenografts; experiment: PC9 xenograft, Compound A with or without radiation, tumor volume; format: in vivo, mice
Procedure: (§2) Mice bearing locally advanced xenograft (PC9, RKO, or UMSCC74B) were treated with vehicle (control); daily oral gavage of Compound A (also referred to as DPI-503), radiation plus vehicle, or a combination of daily oral gavage of Compound A and radiation. Tumor volumes were measured using calipers at least three times a week.

[2] = system: tumors driven by mt-KRAS or mt-BRAF; experiment: NC160 Tumor Cell panel; format: cell-based; details: several tumors driven by mt-KRAS or mt-BRAF
EGFR = target: T1, EGFR (Homo sapiens, UniProt P00533); experiment: Loss/depletion of EGFR from treated tumor cells; format: cell-based
T1 construct: they all coexpress wild-type (wt)—EGFR along with the KRAS or BRAF oncogene; endogenous in cells
From the text: However, binding of ODDERs to EGFR prevents activated EGFR from forming the stable molecular complexes required to protect them from being rapidly internalized and degraded by the normal cellular protein degradation mechanisms, which is exactly what these molecules were designed to do. […] The kinase catalytic domain then unbinds both the product, a tyrosyl phosphate monoester, and the byproduct ADP, and can then bind further ATP and substrate as the catalytic cycle continues. There appear to be two major uses for tyrosine phosphorylation in a substrate molecule. The first is that conformational changes in the substrate protein are often driven by the conversion of a neutral, somewhat hydrophobic, tyrosine side chain into a highly hydrophilic phosphotyrosine, with two negative charges at physiological pH. The second is that there are binding sites on many proteins for phosphotyrosine residues, which induce new protein-protein interactions for the substrate protein, frequently changing its cellular localization and/or allowing it to assemble into new multiprotein complexes, both of which can lead the substrate protein to show very different activities after phosphorylation. […] This recruits the intermediate proteins which lead to the activation of the before mentioned signaling cascades. […]

[3] = system: RKO BRAF V600E colorectal cancer tumors; experiment: RKO xenograft, Compound A with or without radiation, tumor volume; format: in vivo, mice; details: mt-BRAF RKO, 100 mg/kg daily oral, 2 GY/day five days a week for 3 weeks
Procedure: as §2

[4] = system: UMSCC74B KRAS G12D head and neck squamous cell carcinoma tumor; experiment: UMSCC74B xenograft, Compound A with or without radiation, tumor volume; format: in vivo, mice; details: mt-KRAS UMSCC74B; 30 mg/kg biw for 2 weeks oral; 2 GY/day five days a week for 3 weeks
xCT = experiment: Loss of EGFR-chaperoned transporter xCT from cells; format: cell-based; details: along with EGFR
From the text: as §1

[5] = On target toxicity compared with EGFR inhibitors
[6] = system: cells driven by mt-KRAS, mt-BRAF, and mt-EGFR; experiment: Oxidative stress in cells, hydrogen peroxide levels as marker; format: cell-based; details: six hours post treatment
From the text: Signs of oxidative stress in cells were investigated after addition of increasing amounts of Compound A with hydrogen peroxide levels being chosen as a marker of increased oxidative stress. […] Consideration was given to ways of exploiting oxidative stress in these tumor types. Oxidative stress both contributes towards causing DNA damage, and makes DNA damage more difficult to repair. So a combination of an ODDER (e.g., Compound A) with a DNA damaging agent, such as radiation, may result in useful therapeutic regimen. Compound A and radiation was examined in vivo xenograft experiments in mt-EGFR, mt-KRAS, and mt-BRAF driven tumors. […] Thus, it is believed that ODDER compounds, such as Compound A, can be used in combination with radiation to treat localized tumors which express either mutant KRAS or mutant BRAF. […] Other ODDER compounds are also expected to have similar lower on target toxicity.

T1 sequence (P00533 25-1210): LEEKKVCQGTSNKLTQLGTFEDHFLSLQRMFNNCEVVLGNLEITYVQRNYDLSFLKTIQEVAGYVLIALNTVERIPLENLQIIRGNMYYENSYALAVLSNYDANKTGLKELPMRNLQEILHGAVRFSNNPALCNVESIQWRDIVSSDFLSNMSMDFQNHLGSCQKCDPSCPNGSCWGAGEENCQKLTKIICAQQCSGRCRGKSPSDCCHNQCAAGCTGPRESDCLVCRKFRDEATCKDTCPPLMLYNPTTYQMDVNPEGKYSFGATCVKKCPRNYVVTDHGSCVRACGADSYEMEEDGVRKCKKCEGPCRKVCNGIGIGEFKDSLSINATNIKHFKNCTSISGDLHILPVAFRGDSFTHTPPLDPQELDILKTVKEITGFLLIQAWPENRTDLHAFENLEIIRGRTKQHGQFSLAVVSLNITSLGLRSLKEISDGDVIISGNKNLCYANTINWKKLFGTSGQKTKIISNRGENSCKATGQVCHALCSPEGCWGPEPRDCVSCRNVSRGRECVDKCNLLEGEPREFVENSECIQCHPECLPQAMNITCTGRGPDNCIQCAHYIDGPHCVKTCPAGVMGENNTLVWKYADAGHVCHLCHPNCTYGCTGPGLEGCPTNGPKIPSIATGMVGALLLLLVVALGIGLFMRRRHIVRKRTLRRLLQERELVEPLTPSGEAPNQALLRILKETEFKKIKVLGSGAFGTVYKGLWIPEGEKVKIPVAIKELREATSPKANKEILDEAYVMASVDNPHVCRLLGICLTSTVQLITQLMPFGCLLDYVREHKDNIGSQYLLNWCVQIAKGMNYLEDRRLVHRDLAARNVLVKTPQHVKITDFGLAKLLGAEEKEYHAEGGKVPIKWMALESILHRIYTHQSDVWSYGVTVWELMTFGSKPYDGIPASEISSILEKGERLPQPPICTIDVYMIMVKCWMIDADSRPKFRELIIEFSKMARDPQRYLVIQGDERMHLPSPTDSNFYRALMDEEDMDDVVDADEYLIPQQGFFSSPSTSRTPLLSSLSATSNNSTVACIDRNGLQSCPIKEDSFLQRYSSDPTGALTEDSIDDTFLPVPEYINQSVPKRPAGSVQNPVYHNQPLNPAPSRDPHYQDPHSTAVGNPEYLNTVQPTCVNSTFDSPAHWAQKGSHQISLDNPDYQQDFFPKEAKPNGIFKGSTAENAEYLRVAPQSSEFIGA

In the case of `CN1CCC2(CC1)N=C(SCC(=O)Nc1cnc3ccccc3c1)C(c1ccc(Br)cc1)=N2` [Compound A], the “ablation of SGLT1 transporter” value (SGLT1) is reported as “ablated along with EGFR”, the “active tumor by gross pathology or histochemistry” value ([1]; Day 155, end of experiment, treatment group not named, presumably combination) is reported as “active tumor could not be detected” and the “anti-tumor effect of Compound A combined with radiation (tumor volume)” value (from here on “anti-tumor effect of Compound A combined”) ([1]; mt-EGFR PC9, 75 mg/kg five times a week for 3 weeks oral, 2 Gy/day five times a week for 3 weeks) is reported as “unexpectedly exhibited efficacy; also recorded: strongly increased”. For the same molecule, the anti-proliferative activity [2] was “considerable anti-proliferative activity”, the “loss of EGFR from the cell surface” value (EGFR) was “loss of EGFR from the cell surface” and the “anti-tumor effect of Compound A combined” value [3] was “unexpectedly exhibited efficacy; also recorded: strongly increased”. The “anti-tumor effect of Compound A combined” value [4] was “unexpectedly exhibited efficacy; also recorded: strongly increased”, the “ablation of xCT transporter” value (xCT) was “ablated along with EGFR” and the on target toxicity [5] was “much less on target toxicity than EGFR inhibitors”. The “H2O2 levels, dose dependence” value ([6]; increasing amounts of compound) was “dose-dependent increase” and the “increase in cellular H2O2 levels” value ([6]; top dose tested) was 2-4 fold.
